Values quoted from earlier work, collected in patent publication US9456994B2, “Efficient process for the preparation of lycopene containing oleoresin and lycopene crystals for human consumption” (OMNIACTIVE HEALTH TECHNOLOGIES LIMITED, priority 2011, dated 2016).

What was measured:
[1] = organic solvents

CC(C)=CCC/C(C)=C/C=C/C(C)=C/C=C/C(C)=C/C=C/C=C(C)/C=C/C=C(C)/C=C/C=C(\C)CCC=C(C)C [lycopene, Lycopene]
solubility [1]: soluble in chloroform, hexane, benzene, carbon disulphide, acetone, petroleum ether
lycopene lost (heated at 100 degree C in the presence of carbon dioxide): 5%
lycopene degraded (heated at 100 degree C in the presence of oxygen): More than 30%
